# Assay results reported in patent publication US9062066B2, “Anti-inflammatory compound having inhibitory activity against multiple tyrosine kinases and pharmaceutical composition containing same” (KOREA INSTITUTE OF SCIENCE AND TECHNOLOGY, priority 2010, dated 2015).
# Assays:
# Assay type in all cases: biochemical
# [1] = target: Lyn tyrosine kinase (Homo sapiens (Human), UniProt P07948); assay: in vitro Lyn tyrosine kinase inhibition; settings: 1 uM compound; read-out: % inhibition against Lyn
# Chain of Lyn tyrosine kinase (P07948 whole entry, the tested form may be a part): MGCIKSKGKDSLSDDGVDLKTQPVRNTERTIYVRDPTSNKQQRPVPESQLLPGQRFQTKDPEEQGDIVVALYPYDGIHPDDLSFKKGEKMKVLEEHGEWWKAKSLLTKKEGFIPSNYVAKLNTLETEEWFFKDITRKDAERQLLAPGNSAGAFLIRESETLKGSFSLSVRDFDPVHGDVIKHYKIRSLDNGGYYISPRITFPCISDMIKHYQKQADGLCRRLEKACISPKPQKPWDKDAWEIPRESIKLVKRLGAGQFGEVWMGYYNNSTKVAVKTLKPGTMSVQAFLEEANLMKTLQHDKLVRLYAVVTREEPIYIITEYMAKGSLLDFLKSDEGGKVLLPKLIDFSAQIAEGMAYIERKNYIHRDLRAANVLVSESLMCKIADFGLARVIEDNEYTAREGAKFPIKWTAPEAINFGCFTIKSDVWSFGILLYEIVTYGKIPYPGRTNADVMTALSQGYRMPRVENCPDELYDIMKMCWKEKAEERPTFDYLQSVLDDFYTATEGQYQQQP
# [2] = target: DDR2 tyrosine kinase (Homo sapiens (Human), UniProt Q16832); assay: in vitro DDR2 tyrosine kinase inhibition (GST-fused kinase domain); settings: 1 uM compound; read-out: % inhibition against DDR2
# Chain of DDR2 tyrosine kinase (Q16832 563-849): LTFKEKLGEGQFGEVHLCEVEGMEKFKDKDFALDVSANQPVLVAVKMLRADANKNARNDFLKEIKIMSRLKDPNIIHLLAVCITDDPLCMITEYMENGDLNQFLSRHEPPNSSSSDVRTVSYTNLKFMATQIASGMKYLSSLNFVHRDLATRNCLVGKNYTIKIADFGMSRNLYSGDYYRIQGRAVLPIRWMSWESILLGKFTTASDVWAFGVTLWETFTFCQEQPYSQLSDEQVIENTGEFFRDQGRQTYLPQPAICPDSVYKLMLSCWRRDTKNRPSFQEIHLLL
# [3] = target: c-Src tyrosine kinase (Homo sapiens (Human), UniProt P12931); assay: in vitro c-Src tyrosine kinase inhibition (32P-ATP, poly(D4Y)n substrate); settings: 1 uM compound; read-out: % inhibition against c-Src
# Chain of c-Src tyrosine kinase (P12931 whole entry, looked up): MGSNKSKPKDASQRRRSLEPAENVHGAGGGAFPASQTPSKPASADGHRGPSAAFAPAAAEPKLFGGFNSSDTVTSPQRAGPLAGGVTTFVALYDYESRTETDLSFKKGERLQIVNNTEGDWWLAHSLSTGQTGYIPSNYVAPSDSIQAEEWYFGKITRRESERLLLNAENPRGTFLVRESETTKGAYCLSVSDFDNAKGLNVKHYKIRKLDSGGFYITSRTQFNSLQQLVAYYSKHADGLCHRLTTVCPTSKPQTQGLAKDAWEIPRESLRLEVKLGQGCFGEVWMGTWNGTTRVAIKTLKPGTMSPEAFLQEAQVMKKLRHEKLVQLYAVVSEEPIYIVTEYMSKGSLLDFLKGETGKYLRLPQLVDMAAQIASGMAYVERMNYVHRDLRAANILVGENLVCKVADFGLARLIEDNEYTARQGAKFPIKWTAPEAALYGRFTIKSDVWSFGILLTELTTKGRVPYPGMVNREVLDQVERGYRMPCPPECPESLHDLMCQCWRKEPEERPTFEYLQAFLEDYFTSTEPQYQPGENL
# [4] = target: Hck tyrosine kinase (Homo sapiens (Human), UniProt P08631); assay: in vitro Hck tyrosine kinase inhibition; settings: 1 uM compound; read-out: % inhibition against Hck
# Chain of Hck tyrosine kinase (P08631 whole entry): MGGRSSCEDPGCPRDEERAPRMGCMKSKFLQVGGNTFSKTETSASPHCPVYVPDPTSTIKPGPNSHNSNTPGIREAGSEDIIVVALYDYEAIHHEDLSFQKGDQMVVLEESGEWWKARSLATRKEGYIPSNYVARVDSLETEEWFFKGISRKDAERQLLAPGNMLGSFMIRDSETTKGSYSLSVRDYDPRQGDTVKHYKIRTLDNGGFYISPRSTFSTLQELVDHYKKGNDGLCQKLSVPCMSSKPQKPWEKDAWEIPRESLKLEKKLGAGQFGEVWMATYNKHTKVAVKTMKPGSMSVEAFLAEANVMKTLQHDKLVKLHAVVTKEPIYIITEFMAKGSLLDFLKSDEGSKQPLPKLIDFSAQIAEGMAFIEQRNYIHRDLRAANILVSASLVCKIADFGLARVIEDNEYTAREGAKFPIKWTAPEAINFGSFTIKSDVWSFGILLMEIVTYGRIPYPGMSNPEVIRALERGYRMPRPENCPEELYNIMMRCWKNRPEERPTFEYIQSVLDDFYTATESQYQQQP
# [5] = target: Fgr tyrosine kinase (Homo sapiens (Human), UniProt P09769); assay: in vitro Fgr tyrosine kinase inhibition; settings: 1 uM compound; read-out: % inhibition against Fgr
# Chain of Fgr tyrosine kinase (P09769 whole entry, the tested form may be a part): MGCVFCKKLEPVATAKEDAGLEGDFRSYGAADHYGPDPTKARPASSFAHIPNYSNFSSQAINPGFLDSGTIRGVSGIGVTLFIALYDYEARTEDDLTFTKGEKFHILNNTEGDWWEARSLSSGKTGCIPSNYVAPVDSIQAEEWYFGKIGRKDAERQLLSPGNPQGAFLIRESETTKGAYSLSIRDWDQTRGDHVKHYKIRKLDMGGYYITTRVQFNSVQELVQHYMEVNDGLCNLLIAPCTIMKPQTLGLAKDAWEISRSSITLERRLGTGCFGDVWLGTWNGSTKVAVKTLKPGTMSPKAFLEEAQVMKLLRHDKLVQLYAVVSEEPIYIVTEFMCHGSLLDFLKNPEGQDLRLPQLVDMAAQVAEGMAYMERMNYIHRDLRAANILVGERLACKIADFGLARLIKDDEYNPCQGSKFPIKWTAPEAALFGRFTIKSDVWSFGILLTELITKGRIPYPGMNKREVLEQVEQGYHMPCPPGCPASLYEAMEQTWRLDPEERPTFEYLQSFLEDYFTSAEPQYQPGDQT
# [6] = target: DDR1 tyrosine kinase (Homo sapiens (Human), UniProt Q08345); assay: in vitro DDR1 tyrosine kinase inhibition (GST-fused kinase domain); settings: 1 uM compound; read-out: % inhibition against DDR1
# Chain of DDR1 tyrosine kinase (Q08345 610-905): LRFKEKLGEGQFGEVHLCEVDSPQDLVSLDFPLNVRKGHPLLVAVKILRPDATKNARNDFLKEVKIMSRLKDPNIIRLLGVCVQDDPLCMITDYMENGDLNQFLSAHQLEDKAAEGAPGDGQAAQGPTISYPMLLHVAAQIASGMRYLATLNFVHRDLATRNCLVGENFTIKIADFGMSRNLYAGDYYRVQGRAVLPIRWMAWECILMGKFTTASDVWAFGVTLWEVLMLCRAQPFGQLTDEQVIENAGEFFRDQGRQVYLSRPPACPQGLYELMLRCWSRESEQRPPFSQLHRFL
Structure (SMILES),inhibition at 1 µM [1],inhibition at 1 µM [2],inhibition at 1 µM [3],inhibition at 1 µM [4],inhibition at 1 µM [5],inhibition at 1 µM [6]
"Oc1cccc(Nc2ncnc3cc(-c4cc(CN5CCOCC5)cs4)sc23)c1 [LCB 03-0104, 3-(6-(4-(morpholinomethyl)thiophene-2-yl)thieno[3,2-d]pyrimidin-4-ylamino)phenol]",> 50%,> 80%,> 50%,> 50%,> 50%,> 80%
"COc1cccc(Nc2ncnc3cc(-c4ccc(OCCN5CCNCC5)cc4)sc23)c1 [LCB 03-0029, N-(3-methoxyphenyl)-6-(4-(2-(piperazin-1-yl)ethoxy)phenyl)thieno[3,2-d]pyrimidin-4-amine]",> 60%,> 20%,> 60%,> 60%,> 60%,> 20%
"Oc1cccc(Nc2ncnc3cc(-c4cc(CN5CCCCC5)co4)sc23)c1 [LCB 03-0115, 3-(6-(4-(piperidin-1-ylmethyl)furan-2-yl)thieno[3,2-d]pyrimidin-4-ylamino)phenol]",> 50%,> 70%,> 50%,> 50%,> 50%,> 70%
"Oc1cccc(Nc2ncnc3cc(-c4ccc(OCCN5CCOCC5)cc4)sc23)c1 [LCB 03-0020, 3-(6-(4-(2-morpholinoethoxy)phenyl)thieno[3,2-d]pyrimidin-4-ylamino)phenol]",> 70%,> 60%,> 70%,> 70%,> 70%,> 60%
"COc1cccc(Nc2ncnc3cc(-c4ccco4)sc23)c1 [LCB 03-0023, (6-Furan-2-yl-thieno[3,2-d]pyrimidin-4-yl)-(3-methoxyphenyl)-amine]",> 40%,> 60%,> 40%,> 40%,> 40%,> 60%
"Oc1cccc(Nc2ncnc3cc(-c4cc(CN5CCCCC5)cs4)sc23)c1 [LCB 03-0103, 3-(6-(4-(piperidin-1-ylmethyl)thiophene-2-yl)thieno[3,2-d]pyrimidin-4-ylamino)phenol]",> 50%,> 70%,> 50%,> 50%,> 50%,> 70%
"COc1cccc(Nc2ncnc3cc(-c4ccc(OCCN5CCCC5)cc4)sc23)c1 [LCB 03-0026, N-(3-methoxyphenyl)-6-(4-(2-(pyrrolidin-1-yl)ethoxy)phenyl)thieno[3,2-d]pyrimidin-4-amine]",> 40%,> 20%,> 60%,> 60%,> 60%,> 20%
"CN1CCN(Cc2coc(-c3cc4ncnc(Nc5cccc(O)c5)c4s3)c2)CC1 [LCB 03-0114, 3-(6-(4-((4-methylpiperazin-1-yl)methyl)furan-2-yl)thieno[3,2-d]pyrimidin-4-ylamino)phenol]",> 50%,> 70%,> 50%,> 50%,> 50%,> 70%
"CN1CCN(c2nc3ncnc(Nc4cccc(O)c4)c3s2)CC1 [LCB 03-0100, 3-(2-(4-methylpiperazin-1-yl)thiazolo[4,5-d]pyrimidin-7-ylamino)phenol]",> 30%,> 70%,> 30%,> 30%,> 30%,> 70%
"COc1cccc(Nc2ncnc3cc(-c4ccc(OCCc5ccccc5)cc4)sc23)c1 [LCB 03-0021, N-(3-methoxyphenyl)-6-(4-phenethoxyphenyl)thieno[3,2-d]pyrimidin-4-amine]",> 60%,> 30%,> 50%,> 60%,> 60%,> 30%
"Oc1cccc(Nc2ncnc3cc(-c4cc(CN5CCCC5)co4)sc23)c1 [LCB 03-0113, 3-(6-(4-(pyrrolidin-1-ylmethyl)furan-2-yl)thieno[3,2-d]pyrimidin-4-ylamino)phenol]",> 50%,> 70%,> 50%,> 50%,> 50%,> 70%
"COc1cccc(Nc2ncnc3cc(-c4ccsc4)sc23)c1 [LCB 03-0028, (3-Methoxyphenyl)-(6-thiophene-3-yl-thieno[3,2-d]pyrimidin-4-yl)-amine]",> 30%,> 50%,> 30%,> 30%,> 30%,> 50%
"COc1cccc(Nc2ncnc3cc(-c4ccoc4)sc23)c1 [LCB 03-0024, (6-Furan-3-yl-thieno[3,2-d]pyrimidin-4-yl)-(3-methoxyphenyl)-amine]",> 30%,> 70%,> 30%,> 30%,> 30%,> 70%

# Now from value to compound:
inhibition at 1 µM [1],inhibition at 1 µM [2],inhibition at 1 µM [3],inhibition at 1 µM [4],inhibition at 1 µM [5],inhibition at 1 µM [6],Structure (SMILES)
> 30%,> 80%,> 30%,> 30%,> 30%,> 80%,"CC(NC(=O)c1ccc(-c2cc3ncnc(Nc4cccc(O)c4)c3s2)cc1)C(=O)O (stereo not drawn) [LCB 03-0075, 2-(4-(4-(3-hydroxyphenylamino)thieno[3,2-d]pyrimidin-6-yl)benzamido)propanoic acid]"
> 30%,> 80%,> 30%,> 30%,> 30%,> 80%,"Oc1cccc(Nc2ncnc3cc(-c4ccc(CCN5CCOCC5)cc4)sc23)c1 [LCB 03-0046, 3-(6-(4-(2-morpholinoethyl)phenyl)thieno[3,2-d]pyrimidin-4-ylamino)phenol]"
> 40%,> 80%,> 40%,> 40%,> 40%,> 80%,"CCN(CC)C(=O)Cc1ccc(-c2cc3ncnc(Nc4cccc(O)c4)c3s2)cc1 [LCB 03-0050, N,N-diethyl-2-(4-(4-(3-hydroxyphenylamino)thieno[3,2-d]pyrimidin-6-yl)phenyl)acetamide]"
> 60%,> 80%,> 60%,> 60%,> 50%,> 80%,"CN1CCN(C(=O)c2ccc(-c3cc4ncnc(Nc5cccc(O)c5)c4s3)cc2)CC1 [LCB 03-0052, (4-(4-(3-hydroxyphenylamino)thieno[3,2-d]pyrimidin-6-yl)phenyl)(4-methylpiperazin-1-yl)methanone]"
,> 80%,,,,> 80%,"O=C(O)c1cccc(-c2cc3ncnc(Nc4cccc(O)c4)c3s2)c1 [LCB 03-0051, 3-(4-(3-hydroxyphenylamino)thieno[3,2-d]pyrimidin-6-yl)benzoic acid]"
> 60%,> 70%,> 60%,> 60%,> 60%,> 70%,"Oc1cccc(Nc2ncnc3cc(-c4ccc(Cl)cc4)sc23)c1 [LCB 03-0019, 3-(6-(4-chlorophenyl)thieno[3,2-d]pyrimidin-4-ylamino)phenol]"
> 70%,> 20%,> 70%,> 70%,> 70%,> 20%,"COc1cccc(Nc2ncnc3cc(-c4ccc(O)cc4)sc23)c1 [LCB 03-0016, 4-(4-(3-methoxyphenylamino)thieno[3,2-d]pyrimidin-6-yl)phenol]"
> 30%,> 80%,> 30%,> 20%,> 20%,> 80%,CN1CCN(CCc2ccc(-c3cc4ncnc(Nc5cccc(O)c5)c4s3)cc2)CC1 [LCB 03-0045]
,> 80%,,,,> 80%,"NC(=O)C1CCCN1Cc1ccc(-c2cc3ncnc(Nc4cccc(O)c4)c3s2)cc1 (stereo not drawn) [LCB 03-0068, 1-(4-(4-(3-hydroxyphenylamino)thieno[3,2-d]pyrimidin-6-yl)benzyl)pyrrolidine-2-carboxamide]"
> 50%,> 80%,> 50%,> 50%,> 50%,> 80%,"COC(=O)C1CCCN1Cc1ccc(-c2cc3ncnc(Nc4cccc(O)c4)c3s2)cc1 (stereo not drawn) [LCB 03-0056, methyl 1-(4-(4-(3-hydroxyphenylamino)thieno[3,2-d]pyrimidin-6-yl)benzyl)pyrrolidine-2-carboxylate]"
> 70%,> 60%,> 70%,> 70%,> 60%,> 60%,"N#Cc1ccc(-c2cc3ncnc(Nc4cccc(O)c4)c3s2)cc1 [LCB 03-0013, 4-(4-(3-hydroxyphenylamino)thieno[3,2-d]pyrimidin-6-yl)benzonitrile]"
,> 50%,,,,> 50%,"O=C(O)C1CCCN1Cc1ccc(-c2cc3ncnc(Nc4cccc(O)c4)c3s2)cc1 (stereo not drawn) [LCB 03-0069, 1-(4-(4-(3-hydroxyphenylamino)thieno[3,2-d]pyrimidin-6-yl)benzyl)pyrrolidine-2-carboxylic acid]"
